Experimental data as given in US9844224B2, “Bitter alkaloid containing consumables comprising bitter blockers” (GIVAUDAN SA, priority 2008, dated 2017).

Assays:
[1] = test system: alkaloid bitterness in cocoa; assay: Tasting panel, sample vs control: reduction of alkaloid bitterness in cocoa; format: in vivo, human; conditions: 10% unsweetened cocoa powder in water; for bitterness of sample compared to control: room temperature
Description: (§1) All concentrations in % are % (wt/wt), unless otherwise indicated. A tasting panel of 5 to 8 panelists was asked to compare the bitterness of two samples (sample with trilobatin and control without) of various caffeine-containing consumables.
(§2) Different concentrations/ranges were tested, with the ones indicated being the ones with a clear bitter masking effect. While higher concentrations reach a bitter masking effect, panelists found a negative impact on the overall flavor profile at higher concentrations.
A tasting panel of 5 to 8 panelists was asked to compare and record the sensory attribute differences between two samples (sample with trilobatin and control without).
The control and sample contained 10% unsweetened cocoa powder in water (Dutch processed dark cocoa powder, commercially available from Hersheys), the sample additionally contained 0.0005% trilobatin.
The samples were served at room temperature.
A tasting panel of 5 to 8 panelists was asked to compare and record the sensory attribute differences between two samples (sample with HDG and control without).
The control and sample contained 10% unsweetened cocoa powder in water (Dutch processed dark cocoa powder, commercially available from Hersheys), the sample additionally contained 0.0020% (w/w) HDG.

[2] = test system: alkaloid bitterness in caffeine containing energy drinks; assay: Tasting panel, sample vs control: reduction of alkaloid bitterness in an energy drink; format: in vivo, human; conditions: Redbull and Xenergy energy drinks, 0.0005% trilobatin
Description: as §1, §2
The control and sample were caffeine containing energy drinks, the sample additionally contained 0.0005% trilobatin.
The tested caffeine containing energy drinks were sucrose-sweetened glucoronlactone and taurin containing Redbull™ energy drink, and Xenergy™ (Zyions Inc., USA) which is sucralose/Acesulfame-K sweetened and contains vitamin B, calcium, taurine and glucoronlactone.

[3] = test system: alkaloid caffeine bitterness in instant coffee; assay: Tasting panel, sample vs control: reduction of alkaloid bitterness in coffee; format: in vivo, human; conditions: instant coffee in water
Description: as §1, §2
The sample and control were instant coffee (Nescafe, Taster's choice) in water, the sample additionally contained 0.001% (10 ppm) trilobatin. All samples/controls were presented warm to the panelists.

[4] = test system: alkaloid bitterness in brewed black tea; assay: Tasting panel, sample vs control: reduction of alkaloid bitterness in tea; format: in vivo, human; conditions: 0.001% trilobatin, warm, most panelists
Description: as §1, §2
Sample and control were brewed black tea (tea bags, Lipton), the sample additionally contained 0.001% trilobatin which was added to the brewed tea.
Samples and controls were served warm.

caffeine bitterness = assay: Tasting panel, sample vs control: reduction of caffeine bitterness in water; format: in vivo, human; conditions: 200 ppm caffeine in water
Description: as §1, §2
The control and sample contained 0.02 or 200 ppm % caffeine in water, the sample additionally contained 0.000125 to 0.0020 trilobatin.

[5] = test system: tannin-derived bitterness (tannic acid); assay: Tasting panel, sample vs control: tannin bitterness in water; format: in vivo, human; conditions: 0.05%/500 ppm tannic acid in water; 0.000125 to 0.002% trilobatin
Text: as §1
The control and sample contained 0.05%/500 ppm tannic acid in water. The samples additionally contained 0.000125 to 0.002% trilobatin.

[6] = test system: panelist trained for sweetness detection; assay: Paired comparison of trilobatin in water versus sucrose solutions (sweetness); format: in vivo, human
Description: (§3) The sweetness detection threshold of trilobatin was determined as detailed below in 1a, 1b and 1c. All examples were performed with sweet sensitive panelists able to detect at least 0.5% of sucrose or less, unless stated otherwise. The concentration detectable by the average consumer will be higher.
Trilobatin (20 ppm, 60 ppm, 100 ppm) in water samples were evaluated for isointensity to sucrose solutions in a concentration of 0, 0.5 and 1% sucrose using a paired comparison method. Samples were paired and tasted left to right with rinsing (water) in between, by one panelist trained for sweetness detection.
The trilobatin samples were compared to either 0%, 0.5%, or 1% sucrose solutions.

[7] = test system: sweet sensitive panelists; assay: Ranking method with R-index: isointensity of trilobatin in water to sucrose; format: in vivo, human
Description: as §3
The sensory evaluation was conducted using a ranking method. Samples at ambient temperature were randomly presented in 15 ml blind aliquots (unidentifiable by panelists). Panels consisted of 15 sweet sensitive subjects and samples were presented in 2 replications over 1 session. After tasting each sample, the mouth was rinsed thoroughly with water at ambient temperature prior to tasting the next sample.
Panelists were presented with 0.5%, 1%, 1.5% and 2% sucrose solutions in water and a fifth sample of 100 ppm trilobatin in water. Subjects were asked to rank the samples from low to high with respect to perceived sweet taste. R-indices were calculated for 100 ppm trilobatin versus either 0.5%, 1%, 1.5% or 2% sucrose.
The sensory evaluation was conducted using the method described in example 1b. The panels consisted of 7 sweet sensitive panelists. Panelists were presented with 0.5%, 1%, and 1.5% sucrose solutions in water and a fourth sample of 200 ppm trilobatin in water. Panelists were asked to rank the samples from low to high with respect to perceived sweet taste.

[8] = test system: sweet sensitive panelists; assay: Ranking with R-index analysis: isointensity of HDG to sucrose; format: in vivo, human
Description: (§4) All examples were performed with sweet sensitive panelists able to detect at least 0.5% of sucrose or less, unless stated otherwise. The concentration detectable by the average consumer will be higher. The results were obtained using 20 panelists in two replications.
The sucrose concentration that tastes isointense in sweetness to HDG was determined using samples of 15 ppm and 20 ppm, each of which was directly compared to a sucrose sample (sucrose solutions of 0.5%, 1%, 1.5% and 2% concentration). Fifteen milliliters of each blinded sample was presented, at room temperature, in random order to 20 sweet sensitive panelists. In two replications (over 1 session), panelists were asked to rank the solutions, from least sweet to most sweet. The data was subjected to an R-index analysis.

[9] = test system: sweet sensitive panelists; assay: Small panel ranking of HDG in water against sucrose solutions; format: in vivo, human
Description: as §4
Further three small panel testings were performed. HDG samples were prepared in concentrations of 5 ppm, 10 ppm, 15 ppm, and 20 ppm in water. All the samples were coded (presented blind) and given to the panel in random order. The panel was also presented with sucrose solutions for comparison The panel was asked to taste each sample and rank the samples from the least sweet to most sweet.

[10] = test system: naringin and limonin bitterness; conditions: cited from earlier work

O=C(CCc1ccc(O)cc1)c1c(O)cc(O[C@@H]2O[C@H](CO)[C@@H](O)[C@H](O)[C@H]2O)cc1O [trilobatin, 1-[4-(beta-D-glucopyranosyloxy)-2,6-dihydroxyphenyl]-3-(4-hydroxyphenyl)-1-propanone]
alkaloid bitterness in the middle and towards the end of the temporal bitterness profile ([1]; 0.0005% trilobatin): markedly reduced
bitter aftertaste ([1]; 0.0005% trilobatin): no bitter aftertaste
cocoa aroma ([1]; 0.0005% trilobatin): keep their cocoa aroma
bitterness of sample compared to control ([1]; 0.0005% trilobatin): less bitter
bitter aftertaste [2]: slight bitter aftertaste remains
bitterness in the middle of the temporal pattern [2]: very effectively blocked
bitterness of sample compared to control [2]: less bitter
concentration at which suppression of coffee flavor starts [3]: about 20 ppm
concentration at which the coffee flavor is significantly affected [3]: ≥ 50 ppm
alkaloid caffeine bitterness in the middle and towards the end of the temporal bitterness profile ([3]; 0.001% (10 ppm) trilobatin): markedly reduced
bitter aftertaste ([3]; 0.001% (10 ppm) trilobatin): no bitter aftertaste
bitterness of sample compared to control ([3]; 0.001% (10 ppm) trilobatin, warm): less bitter
bitterness of sample compared to control [4]: slightly less bitter
caffeine bitterness reduced compared to the control (caffeine bitterness; 0.000125% (1.25 ppm) trilobatin): not
caffeine bitterness compared to the control (caffeine bitterness; 0.0005% (5 ppm) up to 0.0020 (20 ppm) trilobatin): reduced
bitterness of samples and control [5]: similarly bitter
Taste of trilobatin samples compared to sucrose ([6]; 20 ppm trilobatin in water vs 0% sucrose): isosweet
Taste of trilobatin samples compared to sucrose ([6]; 20 ppm trilobatin in water vs 0.5% sucrose): notably less sweet
Taste of trilobatin samples compared to sucrose ([6]; 60 ppm trilobatin in water vs 0% sucrose): weakly sweeter
Taste of trilobatin samples compared to sucrose ([6]; 60 ppm trilobatin in water vs 0.5% sucrose): less sweet
Taste of trilobatin samples compared to sucrose ([6]; 100 ppm trilobatin in water vs 0% sucrose): sweeter
Taste of trilobatin samples compared to sucrose ([6]; 100 ppm trilobatin in water vs 0.5% sucrose): isosweet
Taste of trilobatin samples compared to sucrose ([6]; 100 ppm trilobatin in water vs 1% sucrose): less sweet
sample sweetness (trilobatin, 100 ppm) ([7]; vs 0.5% sucrose): Isosweet
sample sweetness (trilobatin, 100 ppm) ([7]; vs 1.0% sucrose): Less sweet
sample sweetness (trilobatin, 100 ppm) ([7]; vs 1.5% sucrose): Less sweet
sample sweetness (trilobatin, 100 ppm) ([7]; vs 2.0% sucrose): Less sweet

COc1ccc(CCC(=O)c2c(O)cc(O[C@@H]3O[C@H](CO)[C@@H](O)[C@H](O)[C@H]3O)cc2O)cc1O [HDG, 1-[4-(beta-D-glucopyranosyloxy)-2,6-dihydroxyphenyl]-3-(3-hydroxy-4-methoxyphenyl)-1-propanone]
bitter aftertaste ([1]; 0.0020% (w/w) HDG): bitter aftertaste that remained
cocoa aroma ([1]; 0.0020% (w/w) HDG): keep their cocoa aroma
purine alkaloid bitterness (theobromine, caffeine) in the middle ([1]; 0.0020% (w/w) HDG): reduced
bitterness of sample compared to control ([1]; 0.0020% (w/w) HDG): less bitter
sample sweetness (HDG, 15 ppm) ([8]; vs 0.5% sucrose): sweeter
sample sweetness (HDG, 20 ppm) ([8]; vs 0.5% sucrose): Sweeter
sample sweetness (HDG, 15 ppm) ([8]; vs 1.0% sucrose): less sweet
sample sweetness (HDG, 20 ppm) ([8]; vs 1.0% sucrose): Isosweet
sample sweetness (HDG, 15 ppm) ([8]; vs 1.5% sucrose): less sweet
sample sweetness (HDG, 20 ppm) ([8]; vs 1.5% sucrose): Less sweet
sample sweetness (HDG, 15 ppm) ([8]; vs 2.0% sucrose): less sweet
sample sweetness (HDG, 20 ppm) ([8]; vs 2.0% sucrose): Less sweet
Rank and taste ([9]; 5 ppm HDG in water): 1 - not sweet
Isointensity to sucrose ([9]; 10 ppm HDG in water): 0.5 % sucrose
Rank and taste ([9]; 10 ppm HDG in water): 2 - very slightly sweet
Isointensity to sucrose ([9]; 15 ppm HDG in water): 0.75% sucrose
Rank and taste ([9]; 15 ppm HDG in water): 3 - slightly sweet
Rank and taste ([9]; 20 ppm HDG in water): 4 - sweet
sweetness threshold detected by sweet sensitive individuals ([9]; HDG in water): about 10 ppm
sweet taste detection threshold relative to that of trilobatin ([9]; in vivo): about 10 times less
suppression of naringin and limonin bitterness ([10]; concentrations at or below the sweet taste detection threshold of HDG): not
naringin and limonin bitterness ([10]; high suprathreshold concentration (ratio taste units sweetener to bitter compound at least 2:1)): suppress
